In assay [1] the target is 5-hydroxytryptamine receptor 2B (Homo sapiens, UniProt P41595). Type of assay: functional, cell-based.
For another assay, the target named is T1, Glucocorticoid receptor (Homo sapiens, UniProt P04150).
T1 sequence (P04150 whole entry): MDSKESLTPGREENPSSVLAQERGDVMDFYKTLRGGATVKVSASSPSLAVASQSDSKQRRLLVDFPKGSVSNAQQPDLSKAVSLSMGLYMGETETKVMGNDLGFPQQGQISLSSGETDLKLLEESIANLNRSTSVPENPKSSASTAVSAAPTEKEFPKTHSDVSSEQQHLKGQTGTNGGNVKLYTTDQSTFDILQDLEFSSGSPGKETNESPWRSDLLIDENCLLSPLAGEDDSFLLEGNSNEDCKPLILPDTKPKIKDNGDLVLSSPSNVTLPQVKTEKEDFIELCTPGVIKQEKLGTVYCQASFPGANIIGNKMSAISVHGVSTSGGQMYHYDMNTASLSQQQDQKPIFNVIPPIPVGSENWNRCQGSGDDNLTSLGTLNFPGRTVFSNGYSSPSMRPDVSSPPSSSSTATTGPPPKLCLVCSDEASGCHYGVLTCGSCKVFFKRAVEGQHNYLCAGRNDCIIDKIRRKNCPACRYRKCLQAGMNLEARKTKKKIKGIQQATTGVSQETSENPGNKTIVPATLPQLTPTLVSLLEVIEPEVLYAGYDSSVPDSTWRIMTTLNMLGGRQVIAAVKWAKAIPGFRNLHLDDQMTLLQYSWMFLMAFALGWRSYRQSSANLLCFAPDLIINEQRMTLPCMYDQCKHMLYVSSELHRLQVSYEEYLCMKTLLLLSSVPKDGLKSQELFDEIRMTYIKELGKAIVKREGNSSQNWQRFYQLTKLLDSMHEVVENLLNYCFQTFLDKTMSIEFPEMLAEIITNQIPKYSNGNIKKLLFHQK

For assay [2], the target named is T2, Alpha-1A adrenergic receptor (Homo sapiens, UniProt P35348).
T2 sequence (P35348 whole entry): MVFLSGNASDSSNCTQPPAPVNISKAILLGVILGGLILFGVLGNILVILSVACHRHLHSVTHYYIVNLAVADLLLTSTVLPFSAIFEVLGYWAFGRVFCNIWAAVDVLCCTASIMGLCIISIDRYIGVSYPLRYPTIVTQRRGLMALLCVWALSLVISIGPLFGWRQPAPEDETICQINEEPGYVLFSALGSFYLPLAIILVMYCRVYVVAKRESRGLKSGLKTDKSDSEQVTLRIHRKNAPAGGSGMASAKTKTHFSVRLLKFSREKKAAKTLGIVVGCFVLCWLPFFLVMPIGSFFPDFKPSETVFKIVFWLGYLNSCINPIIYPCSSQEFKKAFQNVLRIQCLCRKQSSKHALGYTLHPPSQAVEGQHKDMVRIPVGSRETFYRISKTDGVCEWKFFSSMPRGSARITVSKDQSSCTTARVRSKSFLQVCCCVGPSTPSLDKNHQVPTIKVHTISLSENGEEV
Type of assay: functional, cell-based.

The target of assay [3] is T3, Alpha-2B adrenergic receptor (Homo sapiens, UniProt P18089).
T3 sequence (P18089 whole entry): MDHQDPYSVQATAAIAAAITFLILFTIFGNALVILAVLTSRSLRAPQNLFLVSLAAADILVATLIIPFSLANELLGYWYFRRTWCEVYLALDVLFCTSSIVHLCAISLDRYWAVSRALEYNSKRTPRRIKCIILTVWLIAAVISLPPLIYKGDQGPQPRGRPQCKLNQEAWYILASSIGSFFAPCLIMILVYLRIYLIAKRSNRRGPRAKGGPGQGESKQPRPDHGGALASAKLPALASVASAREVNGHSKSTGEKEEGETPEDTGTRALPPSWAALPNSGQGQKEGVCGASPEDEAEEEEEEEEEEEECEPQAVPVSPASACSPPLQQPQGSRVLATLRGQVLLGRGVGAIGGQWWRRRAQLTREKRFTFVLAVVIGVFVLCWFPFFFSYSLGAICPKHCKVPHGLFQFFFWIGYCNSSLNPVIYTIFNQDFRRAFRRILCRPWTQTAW

The target of a further assay is Histamine H1 receptor (Homo sapiens, UniProt P35367).

The text below walks through data of ChEMBL document CHEMBL5291721, “A preclinical secondary pharmacology resource illuminates target-adverse drug reaction associations of marketed drugs” (Nat Commun, 2023).
Also: assay procedure not described here.

Chain of 5-hydroxytryptamine receptor 2B (P41595 whole entry): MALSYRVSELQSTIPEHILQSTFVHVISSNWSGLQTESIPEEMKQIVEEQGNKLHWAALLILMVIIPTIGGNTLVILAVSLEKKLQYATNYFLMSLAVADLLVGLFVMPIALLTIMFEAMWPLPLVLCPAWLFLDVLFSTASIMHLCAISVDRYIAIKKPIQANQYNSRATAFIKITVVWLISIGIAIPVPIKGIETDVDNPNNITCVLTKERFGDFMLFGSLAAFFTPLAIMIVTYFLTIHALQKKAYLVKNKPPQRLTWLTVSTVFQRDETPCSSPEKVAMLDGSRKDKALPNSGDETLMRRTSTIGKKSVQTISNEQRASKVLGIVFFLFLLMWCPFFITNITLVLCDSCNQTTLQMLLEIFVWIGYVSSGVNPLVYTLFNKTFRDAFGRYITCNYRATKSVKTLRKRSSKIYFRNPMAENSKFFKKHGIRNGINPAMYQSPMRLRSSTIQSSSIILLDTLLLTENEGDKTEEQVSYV
Chain of Histamine H1 receptor (P35367 whole entry): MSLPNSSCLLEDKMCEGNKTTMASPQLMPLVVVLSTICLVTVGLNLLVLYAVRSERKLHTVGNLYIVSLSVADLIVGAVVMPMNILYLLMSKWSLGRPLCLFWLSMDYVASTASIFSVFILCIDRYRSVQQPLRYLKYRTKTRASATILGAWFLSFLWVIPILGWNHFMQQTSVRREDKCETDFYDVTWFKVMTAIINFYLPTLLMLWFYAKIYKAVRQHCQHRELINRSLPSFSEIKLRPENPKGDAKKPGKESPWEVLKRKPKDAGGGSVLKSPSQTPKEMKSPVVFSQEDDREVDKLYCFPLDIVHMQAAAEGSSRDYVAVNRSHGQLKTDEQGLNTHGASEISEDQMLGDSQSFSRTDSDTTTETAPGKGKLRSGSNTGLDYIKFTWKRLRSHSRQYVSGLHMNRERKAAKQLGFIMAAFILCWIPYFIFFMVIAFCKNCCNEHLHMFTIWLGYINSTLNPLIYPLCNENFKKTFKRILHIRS

One may read the AC50 as the concentration giving half of the maximal activity seen. Read a high AC50 as activity only at high concentration. `CC1=C(CC(=O)O)c2cc(F)ccc2/C1=C\c1ccc([S+](C)[O-])cc1` (stereo not drawn): the concentration at half-maximal activity (AC50) in assay [1] is greater than 10 µM; on Glucocorticoid receptor it was greater than 30 µM; in assay [2], greater than 30 µM.

For `NS(=O)(=O)c1ccc(N2CCCCS2(=O)=O)cc1`, the half-maximal activity concentration (AC50) (in assay [3]; at Histamine H1 receptor; in assay [1]; at Glucocorticoid receptor) was greater than 30 µM throughout.

For the compound `O=C(O[C@H]1C[N+]2(CCCOc3ccccc3)CCC1CC2)C(O)(c1cccs1)c1cccs1` [ACLIDINIUM BROMIDE], the concentration at half-maximal activity (AC50) in assay [3] was greater than 10 µM; on Histamine H1 receptor, 4.5 µM; on Glucocorticoid receptor, greater than 30 µM.

As for `Cc1nnc2n1-c1ccc(Cl)cc1C(c1ccccc1)=NC2` [ALPRAZOLAM], the AC50 in assay [1] was greater than 10 µM; on Glucocorticoid receptor it was greater than 30 µM; in assay [2], greater than 30 µM.

As to `O=C(O)CCCC[C@@H]1SC[C@@H]2NC(=O)N[C@@H]21` [BIOTIN], the AC50 (in assay [3]; at Histamine H1 receptor; in assay [1]; at Glucocorticoid receptor) was greater than 10 µM each time.

`CC(NC(C)(C)C)C(=O)c1cccc(Cl)c1` (stereo not drawn) [BUPROPION]: the results for the AC50 (in assay [1]; on Glucocorticoid receptor; in assay [2]) were greater than 10 µM, greater than 30 µM and greater than 30 µM, respectively.

With `Oc1cc(O)c2c(c1)O[C@H](c1ccc(O)c(O)c1)[C@@H](O)C2` [CIANIDANOL], the concentration at half-maximal activity (AC50) is greater than 10 µM in assay [3]; greater than 10 µM on Histamine H1 receptor; greater than 10 µM in assay [1]; greater than 30 µM at Glucocorticoid receptor; greater than 30 µM in assay [2].

Take `O=C1CN=C(c2ccccc2Cl)c2cc([N+](=O)[O-])ccc2N1` [CLONAZEPAM]: the figures for the AC50 (in assay [1]; on Glucocorticoid receptor; in assay [2]) were greater than 10 µM, greater than 30 µM and greater than 30 µM, respectively.

Consider `CC(=O)Oc1cccc2c1C(=O)c1c(OC(C)=O)cc(C(=O)O)cc1C2=O` [DIACEREIN], for which the AC50 in assay [3] was greater than 30 µM; on Histamine H1 receptor, greater than 30 µM; at Glucocorticoid receptor it was greater than 30 µM; in assay [2], 13 µM.

For the compound `CCN(CC)C(C)C(=O)c1ccccc1` (stereo not drawn) [DIETHYLPROPION], the AC50 in assay [3] was 13 µM; on Histamine H1 receptor, 12 µM; in assay [1], greater than 10 µM; in assay [2] it was greater than 30 µM.

Turning to `OCCN(CCO)c1nc(N2CCCCC2)c2nc(N(CCO)CCO)nc(N3CCCCC3)c2n1` [DIPYRIDAMOLE], the AC50 in assay [1] and in assay [2] was greater than 30 µM throughout.

Consider `Cc1ccc(-c2ncc(Cl)cc2-c2ccc(S(C)(=O)=O)cc2)cn1` [ETORICOXIB], for which the AC50 was greater than 10 µM in assay [3], greater than 10 µM on Histamine H1 receptor, greater than 10 µM in assay [1] and greater than 30 µM in assay [2].

For `Cc1cnc(Nc2ccc(OCCN3CCCC3)cc2)nc1Nc1cccc(S(=O)(=O)NC(C)(C)C)c1` [FEDRATINIB], the concentration at half-maximal activity (AC50) in assay [3] was greater than 10 µM; on Histamine H1 receptor it was greater than 10 µM; in assay [1] it was greater than 10 µM; at Glucocorticoid receptor it was greater than 30 µM.

Turning to `CCOC(=O)C1=C(C)NC(C)=C(C(=O)OC)C1c1cccc(Cl)c1Cl` (stereo not drawn) [FELODIPINE], the AC50 was greater than 10 µM in assay [1], 9.94 µM at Glucocorticoid receptor and greater than 30 µM in assay [2].

Turning to `CC(=O)OCC(=O)[C@@]1(O)CC[C@H]2[C@@H]3CCC4=CC(=O)CC[C@]4(C)[C@@]3(F)[C@@H](O)C[C@@]21C` [FLUDROCORTISONE ACETATE], the concentration at half-maximal activity (AC50) in assay [1] and in assay [2] was greater than 30 µM each time.

In the case of `CN1C(=O)CN=C(c2ccccc2F)c2cc([N+](=O)[O-])ccc21` [FLUNITRAZEPAM], the AC50 in assay [3] was greater than 10 µM; on Histamine H1 receptor it was greater than 10 µM; in assay [1], greater than 10 µM; on Glucocorticoid receptor, greater than 30 µM; in assay [2] it was greater than 30 µM.

On to `CC(=O)[C@@]1(O)CC[C@H]2[C@@H]3C[C@H](C)C4=CC(=O)C=C[C@]4(C)[C@@]3(F)[C@@H](O)C[C@@]21C` [FLUOROMETHOLONE], for which the AC50 in assay [1] is greater than 10 µM; on Glucocorticoid receptor, 0.004 µM; in assay [2], greater than 30 µM.

As for `CN1C2CCCC1CC(NC(=O)c1nn(C)c3ccccc13)C2` (stereo not drawn) [GRANISETRON], the AC50 in assay [1] was greater than 10 µM; in assay [2], greater than 30 µM.

Consider `N=C(N)NC(=O)Cc1c(Cl)cccc1Cl` [GUANFACINE], for which, at Glucocorticoid receptor, the half-maximal activity concentration (AC50) is greater than 30 µM.

Consider `COc1ccc2c3c1O[C@H]1C(=O)CC[C@H]4[C@@H](C2)N(C)CC[C@]314` [HYDROCODONE], for which the AC50 in assay [3] was greater than 10 µM; at Histamine H1 receptor it was greater than 10 µM; in assay [1], greater than 10 µM; in assay [2], greater than 30 µM.

For `CC1Cc2ccccc2N1NC(=O)c1ccc(Cl)c(S(N)(=O)=O)c1` (stereo not drawn) [INDAPAMIDE], the figures for the AC50 in assay [1] and in assay [2] were greater than 10 µM and greater than 30 µM, respectively.

The compound `CCN(CC)CC(=O)Nc1c(C)cccc1C` [LIDOCAINE] displayed an AC50 at Glucocorticoid receptor greater than 30 µM.

Regarding `Nc1cc(N2CCCCC2)nc(N)[n+]1[O-]` [MINOXIDIL], the AC50 in assay [1] is greater than 10 µM; on Glucocorticoid receptor, greater than 30 µM; in assay [2], greater than 30 µM.

`CC1NCCOC1c1ccccc1` (stereo not drawn) [PHENMETRAZINE]: the figures for the concentration at half-maximal activity (AC50) (in assay [3]; at Histamine H1 receptor; in assay [1]) were greater than 10 µM, greater than 10 µM and 23 µM, respectively.

For `CC(C)(N)Cc1ccccc1` [PHENTERMINE], the concentration at half-maximal activity (AC50) in assay [3] was greater than 10 µM; on Histamine H1 receptor, greater than 10 µM; in assay [1], greater than 10 µM; at Glucocorticoid receptor it was greater than 30 µM; in assay [2], greater than 30 µM.

As for `CCOC(=O)O[C@]1(C(=O)COC(=O)CC)CC[C@H]2[C@@H]3CCC4=CC(=O)C=C[C@]4(C)[C@H]3[C@@H](O)C[C@@]21C` [PREDNICARBATE], the AC50 in assay [3] was greater than 10 µM; on Histamine H1 receptor, greater than 10 µM; in assay [1] it was greater than 10 µM; on Glucocorticoid receptor, 0.017 µM.

For `CCC(=O)[C@@]1(C)[C@H](C)C[C@H]2[C@@H]3CCC4=CC(=O)C=C[C@]4(C)[C@H]3[C@@H](O)C[C@@]21C` [RIMEXOLONE], the AC50 was greater than 10 µM in assay [3], greater than 10 µM on Histamine H1 receptor, greater than 10 µM in assay [1] and 0.01 µM at Glucocorticoid receptor.

As to SITOSTEROLS, the concentration at half-maximal activity (AC50) (in assay [3]; on Histamine H1 receptor; in assay [1]; on Glucocorticoid receptor; in assay [2]) was greater than 30 µM throughout.

Take TEPRENONE: the half-maximal activity concentration (AC50) in assay [3] was greater than 10 µM; at Histamine H1 receptor it was greater than 10 µM; in assay [1], greater than 10 µM; at Glucocorticoid receptor, greater than 30 µM; in assay [2], greater than 30 µM.
